For 29 compounds, current change vs dofetilide control, less the hit threshold results are on record in PubChem BioAssay AID2103 (Johns Hopkins Ion Channel Center, 2009).

The source made the active and inactive calls.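 How the source made its calls: active means hERG current rise at or above blocker-only control mean plus 3 SD, readout 0 or more; inactive means the rest.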

Voltage-gated inwardly rectifying potassium channel KCNH2 (Homo sapiens), sequence (Q12809 whole entry, looked up): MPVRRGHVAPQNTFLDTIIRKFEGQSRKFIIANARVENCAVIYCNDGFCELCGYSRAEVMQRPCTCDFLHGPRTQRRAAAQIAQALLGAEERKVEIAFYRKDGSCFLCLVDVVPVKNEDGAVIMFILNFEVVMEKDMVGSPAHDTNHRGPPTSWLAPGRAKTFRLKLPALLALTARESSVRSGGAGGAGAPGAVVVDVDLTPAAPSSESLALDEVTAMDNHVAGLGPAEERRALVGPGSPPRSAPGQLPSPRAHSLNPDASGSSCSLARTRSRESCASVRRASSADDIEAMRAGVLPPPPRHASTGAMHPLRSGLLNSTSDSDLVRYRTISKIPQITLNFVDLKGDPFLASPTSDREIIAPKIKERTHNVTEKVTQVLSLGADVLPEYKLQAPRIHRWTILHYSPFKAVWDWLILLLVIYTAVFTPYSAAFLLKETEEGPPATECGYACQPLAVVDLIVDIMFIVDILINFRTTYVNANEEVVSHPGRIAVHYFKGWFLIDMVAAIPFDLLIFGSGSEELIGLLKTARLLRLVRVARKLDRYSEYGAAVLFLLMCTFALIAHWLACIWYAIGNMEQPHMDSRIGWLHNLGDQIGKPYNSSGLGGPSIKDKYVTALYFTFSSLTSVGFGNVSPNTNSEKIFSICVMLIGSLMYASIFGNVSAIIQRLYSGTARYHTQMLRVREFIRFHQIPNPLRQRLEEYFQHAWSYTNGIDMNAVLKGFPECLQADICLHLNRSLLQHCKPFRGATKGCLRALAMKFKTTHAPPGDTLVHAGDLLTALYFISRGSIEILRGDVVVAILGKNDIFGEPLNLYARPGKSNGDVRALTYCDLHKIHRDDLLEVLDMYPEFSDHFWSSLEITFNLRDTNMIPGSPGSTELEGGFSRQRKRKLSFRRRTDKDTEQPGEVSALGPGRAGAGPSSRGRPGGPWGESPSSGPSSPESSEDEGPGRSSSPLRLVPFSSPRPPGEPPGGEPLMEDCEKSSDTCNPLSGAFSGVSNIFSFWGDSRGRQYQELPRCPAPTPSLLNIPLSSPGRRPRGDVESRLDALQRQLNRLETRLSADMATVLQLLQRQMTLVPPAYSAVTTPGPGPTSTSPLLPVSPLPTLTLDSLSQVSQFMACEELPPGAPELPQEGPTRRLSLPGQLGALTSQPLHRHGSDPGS

The assay has as its target Voltage-gated inwardly rectifying potassium channel KCNH2 (Homo sapiens) (UniProt Q12809). Briefly: relief of dofetilide hERG inhibition – cell-based, Ionworks automated patch clamp, CHO-hERG, secondary (AID 2103). Conditions: dofetilide IC70, at 10 µM, active compounds read high.
In the case of `CCOC(=O)C1CCN(S(=O)(=O)c2cccc3nonc23)CC1`, the current change vs dofetilide control, less the hit threshold is -37.7% (inactive).
As for `Cc1ccc(C(C#N)c2ccc3c(C(F)(F)F)cc(C(F)(F)F)nc3n2)cc1` (centres undefined), the current change vs dofetilide control, less the hit threshold was -59.8% (inactive).
Turning to `CCOC(=O)Cc1nc2ccccc2o1`, the current change vs dofetilide control, less the hit threshold was -49.3% (inactive).
Turning to `CCc1ccc2nc(NC(=O)c3cc(C)on3)sc2c1`, the current change vs dofetilide control, less the hit threshold was -43.6% (inactive).
Consider `CC(C)Oc1c(Cl)cc(CNC(C)(C)CO)cc1Cl`, for which the current change vs dofetilide control, less the hit threshold was -52.1% (inactive).
Regarding `N#Cc1c(NC(=O)c2cc(-n3cnnc3)ccc2Cl)sc2c1CCCC2`, the current change vs dofetilide control, less the hit threshold was -43.1% (inactive).
Then `Cc1nc2ccccc2n1-c1ccccc1`, with -51.1% (inactive); and `Fc1ccc2nc(Nc3nc4c(F)cc(F)cc4s3)sc2c1`, with -49% (inactive); and `CC1CN(S(=O)(=O)c2ccc(-c3nc4ccccc4s3)cc2)CC(C)O1` (centres undefined), with -45% (inactive).
For the compound `CC(=O)c1c(C)c2c(n1CCN(C)C)CCCC2`, the current change vs dofetilide control, less the hit threshold was -56.2% (inactive).
For the compound `CCOC(=O)N1CCN(C(=O)c2ccc(Cl)c(S(=O)(=O)Nc3ccccc3)c2)CC1`, the current change vs dofetilide control, less the hit threshold is -58.5% (inactive).
For `Cc1ccc(Cn2nnc3c(=O)n(CC(=O)N4CCCc5ccccc54)cnc32)cc1`, the current change vs dofetilide control, less the hit threshold is -41.2% (inactive).
Then `O=C(O)c1ccc(Cl)cc1Nc1nc2cc(Cl)ccc2o1`, with -48.7% (inactive); and `Cc1ccc(C)c2sc(NC(=O)c3nc4ccccc4s3)nc12`, with -46.9% (inactive).
The result for `COC(=O)c1ccc(CSc2ncnc3sc(C)c(C)c23)o1` reads -48.9% (inactive).
In the case of `COc1ccc(C(=O)Nc2ccccc2C(=O)O)cc1Cl`, the current change vs dofetilide control, less the hit threshold is -54.3% (inactive).
Regarding `CN(C(=O)c1ccc(Cl)c(S(=O)(=O)N2CCOCC2)c1)c1ccccc1C(=O)O`, the current change vs dofetilide control, less the hit threshold is -64.9% (inactive).
As for `Cc1nonc1CN(C)C(=O)c1ccc(OC2CCN(Cc3ccccn3)CC2)cc1`, the current change vs dofetilide control, less the hit threshold was -69.9% (inactive).
Turning to `Clc1cccc(OCCCN2CCCC2)c1Cl`, the current change vs dofetilide control, less the hit threshold was -77.4% (inactive).
Regarding `O=C1C2CC=CCC2C(=O)N1c1ccc(Cc2ccncc2)cc1` (centres undefined), the current change vs dofetilide control, less the hit threshold was -31.9% (inactive).
For the compound `CCOC(=O)c1c(C)[nH]c(C)c1S(=O)(=O)N1CCCCC1`, the current change vs dofetilide control, less the hit threshold was -31.9% (inactive).
Consider `CCc1ccc(C(C)NC(=O)C2CCCC2)cc1` (centres undefined), for which the current change vs dofetilide control, less the hit threshold was -41.5% (inactive).
Consider `O=C(c1csc(Nc2ccccc2Cl)n1)N1CCCC1`, for which the current change vs dofetilide control, less the hit threshold was -45.9% (inactive).
Take `NC(=O)C1CCN(C(=O)c2cc3c(s2)CCCC3)CC1`: the current change vs dofetilide control, less the hit threshold was -52.8% (inactive).
As for `CCCN(C(=O)c1ccco1)c1nnc(-c2ccncc2)s1`, the current change vs dofetilide control, less the hit threshold was -29.1% (inactive).
Take `CCOC(=O)N1CCN(C(=O)c2ccc(CN(c3ccc(C)c(C)c3)S(C)(=O)=O)cc2)CC1`: the current change vs dofetilide control, less the hit threshold is -30.1% (inactive).
On to `Cc1ccc(C(=O)Nc2nc3ccccc3c(=O)s2)cc1`, for which the current change vs dofetilide control, less the hit threshold is -52.6% (inactive).
For `CN(Cc1ccccc1)C(=O)CCc1ccccc1`, the current change vs dofetilide control, less the hit threshold is -53.5% (inactive).
The result for `COC(=O)c1c(NS(=O)(=O)c2ccc3ccccc3c2)sc2c1CCCC2` reads -46.2% (inactive).
